Results from patent US10414778B2, “Methods for treatment of resistant cancer” (New Mexico Tech University Research Park Corporation, priority 2016, dated 2019).
Like-named read-outs stand apart in the source and are kept apart here.

Tests used:
Assay type in all cases: cell-based, human
MCF-7 cells = experiment: MTT in vitro growth inhibition assay, MCF-7; settings: Homo sapiens, two independent experiments
Protocol: (§1) Human cancer cell lines were obtained from the American Type Culture Collection (ATCC, Manassas, Va., USA), the European Collection of Cell Culture (ECACC, Salisbury, UK), and the Deutsche Sammlung von Mikroorganismen und Zellkulturen (DSMZ, Braunschweig, Germany). Human cervical adenocarcinoma HeLa cells were cultured in DMEM supplemented with 10% fetal bovine serum (FBS). Human mammary carcinoma MCF-7 cells were cultured in RPMI supplemented with 10% FBS. The U87 cells (ATCC HTB-14) were cultured in DMEM culture medium, while the A549 cells (DSMZ ACC107) were cultured in RPMI culture medium supplemented with 10% heat-inactivated FBS. The GBM Hs683 (ATCC HTB-138) and the T98G (ATCC CRL-1690) cell lines were cultivated in DMEM supplemented with 10% FBS. The GBM U251 cells (ECACC code 09063001) were cultured in 10% MEM. The human uterine sarcoma MES-SA and MES-SA/Dx5 cells were cultured in RPMI-1640 medium supplemented with 10% FBS with MES SA/Dx5 maintained in the presence of 500 nM Doxorubicin (Sigma™). The U373 glioblastoma cells (ECACC 08061901) were cultured in RPMI culture medium supplemented with 10% heat-inactivated FBS.
Spirodienones 4a-m were subjected to in vitro growth inhibition 3-(4,5-dimethylthiazol-2-yl)-2,5-diphenyltetrazolium bromide (MTT) assays against two cell lines, human HeLa cervical and MCF-7 breast adenocarcinomas.
(§2) All compounds were dissolved in DMSO at a concentration of either 100 mM or 50 mM prior to cell treatment. The cells were trypsinized and seeded at various cell concentrations depending on the cell type. The cells were grown for 24 h to 72 h, treated with compounds at concentrations ranging from 0.001 to 100 μM, and incubated for 48, 72, or 96 h in 100 or 200 μL media depending on the cell line used. Cells treated with 0.1% DMSO were used as a negative control, and cells treated with 1 μM phenyl arsine oxide (PAO) were used as a positive control.
To determine the activities of the compounds of the invention toward cancer cells, cell lines treated with different compounds were subjected to an in vitro MTT growth assay using human cervical cancer (HeLa) and human adenocarcinoma (MCF-7) cell lines. The MTT growth assay is a colorimetric assay that measures the metabolic activity of cells via reduction of 3-(4,5-dimethylthiazol-2-yl)-2,5-diphenyltetrazolium bromide (MTT). The reduction of MTT occurs in metabolically-active cells and is characterized by a purple color, which can be quantified via spectrophotometry. A higher absorbance reading indicates a metabolically-active cell, while a low absorbance reading indicates low metabolic activity due to, for example, inhibition of cellular proliferation or cell death.
The values in TABLE 4 are the mean and standard deviation calculated from two independent experiments, which were performed in 4 replicates.

Hs683 cells = experiment: MTT growth inhibition, Hs683 glioma; settings: Homo sapiens
Protocol: as §1, §2
(§3) Compound 4l was evaluated for in vitro growth inhibition against a panel of cancer cell lines, including U373, U251, U87, T98G, human GBM, and A549 NSCLC. […] Compound 4l was also evaluated for in vitro growth inhibition against the apoptosis-sensitive tumor model Hs683 anaplastic oligodendroglioma as a reference.
(§4) Due to their high potencies, compounds 5l and 5g were used to determine the effects of the compounds on drug-resistant tumor cells. Drug-resistant cell lines (i.e., glioma: Hs683, U373, U251, U87, T98G; lung cancer: A549, H2073; uterine carcinoma: MES-SA/Dx5) were complemented with drug-sensitive cell lines, H1993 lung cancer and MES-SA uterine cancer, which were used as controls. Bulbispermine and paclitaxel were also used as controls. The GI50 values were calculated after 48-96 hours of treatment with the indicated compounds in replicate using the MTT growth assay.

U373 glioblastoma cells = experiment: MTT growth inhibition, U373 glioma; settings: Homo sapiens, U373 MG
Protocol: as §1, §2, §3, §4

U251 cells = experiment: MTT growth inhibition, U251 glioma; settings: Homo sapiens
Protocol: as §1, §2, §3, §4

U87 cells = experiment: MTT growth inhibition, U87 glioma; settings: Homo sapiens, U-87 MG
Protocol: as §1, §2, §3, §4

T98G cells = experiment: MTT growth inhibition, T98G glioma; settings: Homo sapiens, T98G
Protocol: as §1, §2, §3, §4

MES-SA/Dx5 cells = experiment: MTT growth inhibition, MDR uterine sarcoma MES-SA/Dx5; settings: for GI50: Homo sapiens, MES-SA/Dx5, MTT
Protocol: as §1, §2
Compound 4l was also evaluated against the MDR uterine sarcoma cell line (MES-SA/Dx5 to evaluate whether the compounds of the invention were substrates for the MDR cancer efflux systems. The MES-SA/Dx5 cell line was established from the parent uterine sarcoma MES-SA, grown in the presence of increasing concentrations of doxorubicin and is known to be resistant to a number of P-gp substrates.
The selection of doxorubicin-resistant cells (MES-SA/Dx5 cell line) was performed by splitting the cells and allowing the cells to adhere overnight. The next day, the cells were initially exposed to a DOX concentration of 100 nM, which represented the GI50 concentration. The cells were maintained at this DOX concentration until their growth rate reached that of the untreated cells. The DOX concentration was then increased in two-fold increments following the same growth criteria at each concentration to a final DOX concentration of 500 nM. Each new DOX concentration required approximately 2 passages to reach the growth rate of the untreated cells.
as §4

[1] = tested on: five GBM cell cultures (U373, T98G, U251, Hs683, U87); experiment: MTT growth curves of five GBM cell cultures (populations resistant to proapoptotic agents)
Description: Cells resistant to various pro-apoptotic stimuli often contain a sensitive population that quickly response to pro-apoptotic agents. However, a significant portion of the cells in a culture resist the effects of pro-apoptotic agents even at concentrations 100- or 1000-fold their GI50 values.

GI50 (MCF-7 cells; MCF7, Table 4, 48-hour treatment, mean and standard deviation, read-out: MCF-7 Cell Viability GI50) [µM] | GI50 (Hs683 cells; Hs 683, Table 5, 48-96 hours of treatment, read-out: GI50, Glioma Hs683) [µM] | GI50 (U373 glioblastoma cells; Table 5, 48-96 hours of treatment, read-out: GI50, Glioma U373) [µM] | GI50 (U251 cells; U-251, Table 5, 48-96 hours of treatment, read-out: GI50, Glioma U251) [µM] | GI50 (U87 cells; Table 5, 48-96 hours of treatment, read-out: GI50, Glioma U87) [µM] | GI50 (T98G cells; Table 5, 48-96 hours of treatment, read-out: GI50, Glioma T98G) [µM] | GI50 (MES-SA/Dx5 cells; Table 5, 48-96 hours of treatment, read-out: GI50, Sarcoma MES-SA/Dx5) [µM] | GI50 (MCF-7 cells; MCF7, MCF-7, 48 h treatment, ± SD, read-out: cell viability GI50, MCF-7) [µM] | GI50 (Hs683 cells; Hs 683, Table 3, 48-96 h treatment, read-out: GI50 in vitro values, glioma Hs683) [µM] | GI50 (U373 glioblastoma cells; Table 3, 48-96 h treatment, read-out: GI50 in vitro values, glioma U373) [µM] | GI50 (U251 cells; U-251, Table 3, 48-96 h treatment, read-out: GI50 in vitro values, glioma U251) [µM] | GI50 (U87 cells; Table 3, 48-96 h treatment, read-out: GI50 in vitro values, glioma U87) [µM] | GI50 (T98G cells; Table 3, 48-96 h treatment, read-out: GI50 in vitro values, glioma T98G) [µM] | GI50 (MES-SA/Dx5 cells; Table 3, 48-96 h treatment, read-out: GI50 in vitro values, uterine sarcoma MES-SA/Dx5) [µM] | SMILES | dose-dependent effects against cell populations resistant to proapoptotic agents ([1]; U373, T98G, U251, Hs683, U87, MTT, FIG. 8) | variation in activity, MDR cell line versus parent cell line (MES-SA/Dx5 cells; MES-SA/Dx5 versus MES-SA) | resistant populations in growth curves of GBM cell cultures ([1]; 5 GBM cell lines, FIG. 1, one experiment in six replicates)
4.7 ± 0.1 | 6 | 7 | 5 | 5 | 7 | 7 |  |  |  |  |  |  |  | O=C1C=C[C@]23CC[N@](Cc4c2sc2ccccc42)[C@H]3C1 [Compound 5l] | dose-dependent effects |  | 
 |  |  |  |  |  |  | 7 ± 1 | 5 | 7 | 4 | 6 | 15 | 5 | O=C1C=CC2(C=C1)CCN(C(=O)C(F)(F)F)Cc1c2sc2ccccc12 [Compound 4l] |  | small variation in activity | absence of such resistant populations
